Source: ChEMBL document CHEMBL2440076, “New triarylpyrazoles as broad-spectrum anticancer agents: design, synthesis, and biological evaluation” (Eur J Med Chem, 2013)

Assays:
Assay type in all cases: functional
HOP-62 = experiment: Growth inhibition of human HOP62 cells assessed as cell growth at 10^-6 M after 48 hrs by sulforhodamine B assay; conditions: HOP-62, 48 h, read-out: Activity
LOX IMVI = experiment: Growth inhibition of human LOXIMVI cells assessed as cell growth at 10^-7 M after 48 hrs by sulforhodamine B assay; conditions: read-out: Activity
NCI-H460 = experiment: Growth inhibition of human NCI-H460 cells assessed as cell growth at 10^-6 M after 48 hrs by sulforhodamine B assay; conditions: NCI-H460, 48 h, read-out: Activity
786-0 [1] = experiment: Growth inhibition of human 786-0 cells assessed as cell growth at 10^-6 M after 48 hrs by sulforhodamine B assay; conditions: 786-0, 48 h, read-out: Activity
T47D = experiment: Growth inhibition of human T47D cells assessed as cell growth at 10^-8 M after 48 hrs by sulforhodamine B assay; conditions: read-out: Activity
M14 = experiment: Growth inhibition of human M14 cells assessed as cell growth at 10^-7 M after 48 hrs by sulforhodamine B assay; conditions: M14, 48 h, read-out: Activity
MDA-MB-435 = experiment: Growth inhibition of human MDA-MB-435 cells assessed as cell growth at 10^-6 M after 48 hrs by sulforhodamine B assay; conditions: MDA-MB-435, 48 h, read-out: Activity
NCI-H322M = experiment: Growth inhibition of human NCI-H322M cells assessed as cell growth at 10^-7 M after 48 hrs by sulforhodamine B assay; conditions: read-out: Activity
MCF7 = experiment: Growth inhibition of human MCF7 cells assessed as cell growth at 10^-8 M after 48 hrs by sulforhodamine B assay; conditions: MCF7, 48 h, read-out: Activity
HOP-92 = experiment: Growth inhibition of human HOP92 cells assessed as cell growth at 10^-6 M after 48 hrs by sulforhodamine B assay; conditions: HOP-92, 48 h, read-out: Activity
RPMI-8226 [2] = experiment: Growth inhibition of human RPMI8226 cells assessed as cell growth at 10^-6 M after 48 hrs by sulforhodamine B assay; conditions: RPMI-8226, 48 h, read-out: Activity
NCI-H23 = experiment: Growth inhibition of human NCI-H23 cells assessed as cell growth at 10^-8 M after 48 hrs by sulforhodamine B assay; conditions: NCI-H23, 48 h, read-out: Activity
SK-OV-3 [3] = experiment: Growth inhibition of human SKOV3 cells assessed as cell growth at 10^-4 M after 48 hrs by sulforhodamine B assay; conditions: SK-OV-3, 48 h, read-out: Activity
MOLT-4 = experiment: Growth inhibition of human MOLT4 cells assessed as cell growth at 10^-8 M after 48 hrs by sulforhodamine B assay; conditions: MOLT-4, 48 h, read-out: Activity
BT-549 [4] = experiment: Growth inhibition of human BT549 cells assessed as cell growth at 10^-8 M after 48 hrs by sulforhodamine B assay; conditions: BT-549, 48 h, read-out: Activity
UO-31 = experiment: Growth inhibition of human UO31 cells assessed as cell growth at 10^-4 M after 48 hrs by sulforhodamine B assay; conditions: UO-31, 48 h, read-out: Activity
SNB-19 = experiment: Growth inhibition of human SNB19 cells assessed as cell growth at 10^-7 M after 48 hrs by sulforhodamine B assay; conditions: SNB-19, 48 h, read-out: Activity
[5] = Growth inhibition of human HCC2998 cells assessed as cell growth at 10^-7 M after 48 hrs by sulforhodamine B assay; conditions: HCC 2998, 48 h, read-out: Activity
UACC-257 = experiment: Growth inhibition of human UACC257 cells assessed as cell growth at 10^-4 M after 48 hrs by sulforhodamine B assay; conditions: UACC-257, 48 h, read-out: Activity
786-0 [6] = experiment: Growth inhibition of human 786-0 cells assessed as cell growth at 10^-5 M after 48 hrs by sulforhodamine B assay; conditions: 786-0, 48 h, read-out: Activity
U-251 [7] = experiment: Growth inhibition of human U251 cells assessed as cell growth at 10^-5 M after 48 hrs by sulforhodamine B assay; conditions: U-251, 48 h, read-out: Activity
ACHN [8] = experiment: Growth inhibition of human ACHN cells assessed as cell growth at 10^-6 M after 48 hrs by sulforhodamine B assay; conditions: read-out: Activity
TK-10 = experiment: Growth inhibition of human TK10 cells assessed as cell growth at 10^-6 M after 48 hrs by sulforhodamine B assay; conditions: TK-10, 48 h, read-out: Activity
NCI-H226 = experiment: Growth inhibition of human NCI-H226 cells assessed as cell growth at 10^-5 M after 48 hrs by sulforhodamine B assay; conditions: NCI-H226, 48 h, read-out: Activity
ACHN [9] = experiment: Growth inhibition of human ACHN cells assessed as cell growth at 10^-5 M after 48 hrs by sulforhodamine B assay; conditions: read-out: Activity
U-251 [10] = experiment: Growth inhibition of human U251 cells assessed as cell growth at 10^-6 M after 48 hrs by sulforhodamine B assay; conditions: U-251, 48 h, read-out: Activity
BT-549 [11] = experiment: Growth inhibition of human BT549 cells assessed as cell growth at 10^-5 M after 48 hrs by sulforhodamine B assay; conditions: BT-549, 48 h, read-out: Activity
RPMI-8226 [12] = experiment: Growth inhibition of human RPMI8226 cells assessed as cell growth at 10^-7 M after 48 hrs by sulforhodamine B assay; conditions: RPMI-8226, 48 h, read-out: Activity
SF-295 = experiment: Growth inhibition of human SF295 cells assessed as cell growth at 10^-5 M after 48 hrs by sulforhodamine B assay; conditions: SF-295, 48 h, read-out: Activity
SR = experiment: Growth inhibition of human SR cells assessed as cell growth at 10^-7 M after 48 hrs by sulforhodamine B assay; conditions: read-out: Activity
OVCAR-8 = experiment: Growth inhibition of human OVCAR8 cells assessed as cell growth at 10^-4 M after 48 hrs by sulforhodamine B assay; conditions: OVCAR-8, 48 h, read-out: Activity
OVCAR-4 = experiment: Growth inhibition of human OVCAR4 cells assessed as cell growth at 10^-7 M after 48 hrs by sulforhodamine B assay; conditions: OVCAR-4, 48 h, read-out: Activity
SK-OV-3 [13] = experiment: Growth inhibition of human SKOV3 cells assessed as cell growth at 10^-8 M after 48 hrs by sulforhodamine B assay; conditions: SK-OV-3, 48 h, read-out: Activity
U-251 [14] = experiment: Growth inhibition of human U251 cells assessed as cell growth at 10^-7 M after 48 hrs by sulforhodamine B assay; conditions: U-251, 48 h, read-out: Activity
COLO 205 = experiment: Growth inhibition of human COLO205 cells assessed as cell growth at 10^-7 M after 48 hrs by sulforhodamine B assay; conditions: COLO 205, 48 h, read-out: Activity
SN12C = experiment: Growth inhibition of human SN12C cells assessed as cell growth at 10^-7 M after 48 hrs by sulforhodamine B assay; conditions: read-out: Activity
UACC-62 = experiment: Growth inhibition of human UACC62 cells assessed as cell growth at 10^-8 M after 48 hrs by sulforhodamine B assay; conditions: UACC-62, 48 h, read-out: Activity
HT-29 = experiment: Growth inhibition of human HT-29 cells assessed as cell growth at 10^-4 M after 48 hrs by sulforhodamine B assay; conditions: HT-29, 48 h, read-out: Activity

SMILES | growth at 1 µM (HOP-62) [%] | growth at 0.1 µM (LOX IMVI) [%] | growth at 1 µM (NCI-H460) [%] | growth at 1 µM (786-0 [1]) [%] | growth at 0.01 µM (T47D) [%] | growth at 0.1 µM (M14) [%] | growth at 1 µM (MDA-MB-435) [%] | growth at 0.1 µM (NCI-H322M) [%] | growth at 0.01 µM (MCF7) [%] | growth at 1 µM (HOP-92) [%] | growth at 1 µM (RPMI-8226 [2]) [%] | growth at 0.01 µM (NCI-H23) [%] | growth at 100 µM (SK-OV-3 [3]) [%] | growth at 0.01 µM (MOLT-4) [%] | growth at 0.01 µM (BT-549 [4]) [%] | growth at 100 µM (UO-31) [%] | growth at 0.1 µM (SNB-19) [%] | growth at 0.1 µM [5] [%] | growth at 100 µM (UACC-257) [%] | growth at 10 µM (786-0 [6]) [%] | further results
COc1cc(-c2nn(-c3cccc(NC(=O)c4ccc(N5CCOCC5)c(C(F)(F)F)c4)c3)cc2-c2ccncc2)ccc1Cl | 38 | 78 | 16 | 45 | 102 | 76 | -33 | 100 | 87 | -5 | 16 | 97 | -28 | 109 | 99 | -13 | 81 | 92 | -31 | -14 | growth at 10 µM (U-251 [7]): -17%; growth at 1 µM (ACHN [8]): 39%; growth at 1 µM (TK-10): 58%; growth at 10 µM (NCI-H226): 15%; growth at 10 µM (ACHN [9]): 2%; growth at 1 µM (U-251 [10]): 25%; growth at 10 µM (BT-549 [11]): 25%; growth at 0.1 µM (RPMI-8226 [12]): 88%; growth at 10 µM (SF-295): -64%; growth at 0.1 µM (SR): 19%; growth at 100 µM (OVCAR-8): 1%; growth at 0.1 µM (OVCAR-4): 92%; growth at 0.01 µM (SK-OV-3 [13]): 103%; growth at 0.1 µM (U-251 [14]): 88%; growth at 0.1 µM (COLO 205): 101%; growth at 0.1 µM (SN12C): 90%; growth at 0.01 µM (UACC-62): 95%; growth at 100 µM (HT-29): -43%
COc1cc(-c2nn(-c3cccc(NC(=O)c4ccccc4)c3)cc2-c2ccncc2)ccc1Cl | 72 | 94 | 17 | 56 | 97 | 92 | -28 | 85 | 92 | 15 | 46 | 92 | 19 | 102 | 92 | 24 | 97 | 100 | 24 | 24 | growth at 10 µM (U-251 [7]): 17%; growth at 1 µM (ACHN [8]): 44%; growth at 1 µM (TK-10): 80%; growth at 10 µM (NCI-H226): 26%; growth at 10 µM (ACHN [9]): 26%; growth at 1 µM (U-251 [10]): 40%; growth at 10 µM (BT-549 [11]): 26%; growth at 0.1 µM (RPMI-8226 [12]): 96%; growth at 10 µM (SF-295): -27%; growth at 0.1 µM (SR): 79%; growth at 100 µM (OVCAR-8): 26%; growth at 0.1 µM (OVCAR-4): 95%; growth at 0.01 µM (SK-OV-3 [13]): 97%; growth at 0.1 µM (U-251 [14]): 98%; growth at 0.1 µM (COLO 205): 95%; growth at 0.1 µM (SN12C): 98%; growth at 0.01 µM (UACC-62): 98%; growth at 100 µM (HT-29): 4%
